According to US10538567B2, “Compounds as peptidic trigonal GLP1/glucagon/GIP receptor agonists” (priority 2016, dated 2020):
Numbered stars: 1 amine (or outer) side, 2 acyl side, 3 side chain; on linkers, the order of the positions; unused ones are H or OH. Square brackets hold non-standard residues; d marks the D form. Side chains are listed from the residue outwards. Peptide text beside a SMILES is read from it. * marks the point of attachment. γGlu = O=C(O)[C@H](CCC(=O)[*:2])N[*:1]; Palmitoyl = CCCCCCCCCCCCCCCC(=O)*; Aib = CC(C)(N)C(=O)O

Legend:
[1] = system: female diabetic db/db mice; experiment: Acute effects after s.c. treatment on blood glucose in non-fasting female diabetic db/db mice; assay type: in vivo; conditions: single 30 μg/kg s.c.
Experimental: Female healthy, lean BKS.Cg-(lean)/OlaHsd and diabetes-prone, obese BKS.Cg-+Lepr^db/+Lepr^db/OlaHsd mice were ordered group housed from Envigo RMS Inc., shipped group housed and remained group housed in shoebox caging with wood chip bedding until day 15 of the predose phase. At the study start mice were approximately 12 weeks old.
Mice were housed under vivarium conditions including a 12 h light/dark cycle (light phase 04:00 AM-4:00 PM), room temperatures between 23-26° C. and a relative humidity between 30-70%. All animals had free access to water and Purina Fomulab Diet 5008.
On predose day 9 blood glucose and body mass (approximately between 08:00-10:00 AM) as well as HbA1c measurements were performed. On day 15 of the predose phase animals were assigned to treatment groups (n=8) and to new cages to match mean HbA1c and body masses between all db/db groups. An age-matched lean group was included in the study as a healthy, lean reference.
Prior to day 1 of the dosing phase, the test article was diluted with Phosphate Buffered Saline (PBS, Gibco, without CaCl2 and MgCl2) to a concentration of 1 mg/mL and aliquots of this stock solution were stored at approximately ≤−60° C. On day 1 of the dosing phase the stock aliquot was thawed and the injected test article solution was prepared fresh by diluting it with PBS to achieve the desired concentration.
On Day 1 of the dosing phase db/db mice were either treated once with a s.c. injection of PBS-vehicle or 30 μg/kg test article. The lean reference group was treated once with a s.c. injection of PBS-vehicle. The dosing was initiated and completed between 08:00 and 10:00 AM. The applied volume was 5 ml/kg and the dose was adjusted to the most recent body mass recording of each individual.
Animals had unlimited access to water and feed during the experiment. On day 1 of the dosing phase approximately 5 μL of blood were collected via tail clips at minute −30 and 0 prior to any other inlife activities. At minute 0 mice received a s.c. dose of either PBS-vehicle or 30 μg/kg test article. Further blood samples were harvested at hour 0.25, 0.5, 1, 1.5, 2, 3, 4, 6, 8, and 24 post-dose. Glucose measurements were performed in whole blood using AlphaTRAK glucometers. If the glucose concentrations of two measurements differed by more than 20 mg/dL a third value was recorded. The Area Under the Curve (AUC) for blood glucose was calculated via the trapezoid method and for the duration of the 24 post-dose hours.
In the Figures data are depicted as means±SEM. […] A One Way Analysis of Variance and multiple comparisons (Dunnett's Method) were performed comparing the group of diabetic, obese db/db vehicle mice (n=8) with each diabetic, obese db/db test article treated mice (n=8). […] Non-diabetic, lean-vehicle group data are depicted in the Figures serving as a reference dataset for the non-obese, non-diabetic state.

[2] = Thioflavin T (ThT) assay for physical stability (fibrillation); assay type: physicochemical; conditions: 3 mg/ml, 100 mM acetate pH 4.5 with m-cresol, 37° C. shaking
Procedure, shortened: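 Peptides at 3 mg/ml final with 100 μM ThT final in 100 mM acetate pH 4.5 containing 2.7 mg/mL m-cresol, eight replicates. Stressed at 37° C by repeated cycles of 10 s shaking at 960 rpm and 50 s rest. Fluorescence read every 20 minutes; lag time in hours taken from the sigmoidal kinetic curve.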

[3] = Chemical stability assessment, UPLC-UV purity loss in buffer system A; assay type: physicochemical; conditions: 1 mg/ml, 25 mM acetate buffer pH 4.5 with m-cresol
Experimental: Prior to the chemical stability measurement of a peptide batch, its purity was determined through UPLC/MS. For stability testing the target concentration was 1 mg pure compound/ml. Therefore solutions from solid samples were prepared in a buffer system with a concentration of 1 mg/mL compound based on the previously determined % purity:
Chemical stability buffer system A) 25 mM acetate buffer pH 4.5, 3 mg/mL L-Methionine, 2.7 mg/mL m-cresol, 18 mg/mL Glycerol 85% Chemical stability buffer system B) 25 mM phosphate buffer pH 6.0, 3 mg/mL L-Methionine, 2.7 mg/mL m-cresol, 18 mg/mL Glycerol 85%
Peptide solutions were filtered through […] pore size and filled into aliquots under aseptic conditions. At starting point, UPLC-UV was performed by injection of 2 μl of the undiluted sample.
For chemical stability testing, aliquots were stored for 28 days at 5 and 40° C. After this time course the samples were centrifuged for 15 min at 2500 RCF. Then 2 μl of the undiluted supernatant were analysed with UPLC-UV.
The chemical stability was rated through the relative loss of purity calculated by the equation: [(purity at starting point)−(purity after 28 days at X° C.)]/(purity at starting point)]*100%
The purity is calculated as
[(peak area peptide)/(total peak area)]*100%
Peptide samples were prepared in Chemical stability buffer system A and the stability was assessed as described in Methods.

## CCCCCCCCCCCCCCCC(=O)N[C@@H](CCC(=O)N[C@@H](CCC(=O)NCCCC[C@H](NC(=O)[C@H](CC(C)C)NC(=O)[C@H](CCCCN)NC(=O)[C@H](CO)NC(=O)[C@H](CC(C)C)NC(=O)[C@H](CC(=O)O)NC(=O)[C@H](CO)NC(=O)[C@@H](NC(=O)[C@H](Cc1ccccc1)NC(=O)[C@@H](NC(=O)CNC(=O)[C@H](Cc1c[nH]cn1)NC(=O)C(C)(C)NC(=O)[C@@H](N)Cc1c[nH]cn1)[C@@H](C)O)[C@@H](C)O)C(=O)N[C@@H](CCC(=O)O)C(=O)N[C@@H](CCC(=O)O)C(=O)N[C@@H](CCC(N)=O)C(=O)N[C@@H](CCCNC(=N)N)C(=O)N[C@@H](CCC(N)=O)C(=O)N[C@@H](CCCCN)C(=O)N[C@@H](CCC(=O)O)C(=O)N[C@@H](Cc1ccccc1)C(=O)N[C@H](C(=O)N[C@@H](CCC(=O)O)C(=O)N[C@@H](Cc1c[nH]c2ccccc12)C(=O)N[C@@H](CC(C)C)C(=O)N[C@@H](CCCCN)C(=O)N[C@@H](C)C(=O)NCC(=O)NCC(=O)N[C@@H](Cc1c[nH]cn1)C(=O)N1CCC[C@H]1C(=O)N[C@@H](CO)C(=O)NC(C)(C)C(=O)N[C@@H](CCCCN)C(=O)N1CCC[C@H]1C(=O)N1CCC[C@H]1C(=O)N1CCC[C@H]1C(=O)N[C@@H](CCCCN)C(N)=O)[C@@H](C)CC)C(=O)O)C(=O)O [SEQ ID NO: 6, H-Aib-H-G-T-F-T-S-D-L-S-K-L-K[gGlu-gGlu-Palm]-E-E-Q-R-Q-K-E-F-I-E-W-L-K-A-G-G-H-P-S-Aib-K-P-P-P-K-NH2]
[1]
  mean blood glucose concentration 24 hours post-dose relative to baseline: at or close to baseline
[2]
  Lag time before increase: >45 h
[3]
  Chemical stability [relative purity loss 28 days 40° C.] (%) at pH 4.5: 7.1%

## CCCCCCCCCCCCCCCC(=O)N[C@@H](CCC(=O)N[C@@H](CCC(=O)NCCCC[C@H](NC(=O)[C@H](CC(C)C)NC(=O)[C@H](CCCCN)NC(=O)[C@H](CO)NC(=O)[C@H](CC(C)C)NC(=O)[C@H](CC(=O)O)NC(=O)[C@H](CO)NC(=O)[C@@H](NC(=O)[C@H](Cc1ccccc1)NC(=O)[C@@H](NC(=O)CNC(=O)[C@H](Cc1c[nH]cn1)NC(=O)C(C)(C)NC(=O)[C@@H](N)Cc1c[nH]cn1)[C@@H](C)O)[C@@H](C)O)C(=O)N[C@@H](CCC(=O)O)C(=O)N[C@@H](CCC(=O)O)C(=O)N[C@@H](CCC(N)=O)C(=O)N[C@@H](CCCNC(=N)N)C(=O)N[C@@H](CCC(N)=O)C(=O)N[C@@H](CCCCN)C(=O)N[C@@H](CCC(=O)O)C(=O)N[C@@H](Cc1ccccc1)C(=O)N[C@H](C(=O)N[C@@H](CCC(=O)O)C(=O)N[C@@H](Cc1c[nH]c2ccccc12)C(=O)N[C@@H](CC(C)C)C(=O)N[C@@H](CCCCN)C(=O)N[C@@H](C)C(=O)N[C@H](C)C(=O)NCC(=O)N[C@@H](Cc1c[nH]cn1)C(=O)N1CCC[C@H]1C(=O)N[C@@H](CO)C(=O)NC(C)(C)C(=O)N[C@@H](CCCCN)C(=O)N1CCC[C@H]1C(=O)N1CCC[C@H]1C(=O)N1CCC[C@H]1C(=O)N[C@@H](CCCCN)C(N)=O)[C@@H](C)CC)C(=O)O)C(=O)O [SEQ ID NO: 7, H-Aib-H-G-T-F-T-S-D-L-S-K-L-K[gGlu-gGlu-Palm]-E-E-Q-R-Q-K-E-F-I-E-W-L-K-A-dAla-G-H-P-S-Aib-K-P-P-P-K-NH2] (H-H[Aib]HGTFTSDLSKLK([γGlu-γGlu-Palmitoyl])EEQRQKEFIEWLKA[dA]GHPS[Aib]KPPPK-NH2)
[1]
  mean blood glucose concentration 24 hours post-dose relative to baseline: at baseline
  time to normalise hyperglycemia to the non-fasting blood glucose concentrations of lean reference mice: ≤ 6 h
[2]
  Lag time before increase: >45 h
[3]
  Chemical stability [relative purity loss 28 days 40° C.] (%) at pH 4.5: 8.1%

## CCCCCCCCCCCCCCCC(=O)N[C@@H](CCC(=O)N[C@@H](CCC(=O)NCCCC[C@H](NC(=O)[C@H](CC(C)C)NC(=O)[C@H](CCCCN)NC(=O)[C@H](CO)NC(=O)[C@H](CC(C)C)NC(=O)[C@H](CC(=O)O)NC(=O)[C@H](CO)NC(=O)[C@@H](NC(=O)[C@H](Cc1ccccc1)NC(=O)[C@@H](NC(=O)CNC(=O)[C@H](Cc1c[nH]cn1)NC(=O)C(C)(C)NC(=O)[C@@H](N)Cc1c[nH]cn1)[C@@H](C)O)[C@@H](C)O)C(=O)N[C@@H](CCC(=O)O)C(=O)N[C@@H](CCC(=O)O)C(=O)N[C@@H](CCC(N)=O)C(=O)N[C@@H](CCCNC(=N)N)C(=O)N[C@@H](CCC(N)=O)C(=O)N[C@@H](CCCCN)C(=O)N[C@@H](CCC(=O)O)C(=O)N[C@@H](Cc1ccccc1)C(=O)N[C@H](C(=O)N[C@@H](CCC(=O)O)C(=O)N[C@@H](Cc1c[nH]c2ccccc12)C(=O)N[C@@H](CC(C)C)C(=O)N[C@@H](CCCCN)C(=O)N[C@@H](C)C(=O)NCC(=O)NCC(=O)N1CCC[C@H]1C(=O)N1CCC[C@H]1C(=O)N[C@@H](CO)C(=O)NC(C)(C)C(=O)N[C@@H](CCCCN)C(=O)N1CCC[C@H]1C(=O)N1CCC[C@H]1C(=O)N1CCC[C@H]1C(=O)N[C@@H](CCCCN)C(N)=O)[C@@H](C)CC)C(=O)O)C(=O)O [SEQ ID NO: 8, H-Aib-H-G-T-F-T-S-D-L-S-K-L-K[gGlu-gGlu-Palm]-E-E-Q-R-Q-K-E-F-I-E-W-L-K-A-G-G-P-P-S-Aib-K-P-P-P-K-NH2]
[1]
  mean blood glucose concentration 24 hours post-dose relative to baseline: at or close to baseline
[2]
  Lag time before increase: >45 h
[3]
  Chemical stability [relative purity loss 28 days 40° C.] (%) at pH 4.5: 10.3%

## CCCCCCCCCCCCCCCC(=O)N[C@@H](CCC(=O)N[C@@H](CCC(=O)NCCCC[C@H](NC(=O)[C@H](CC(C)C)NC(=O)[C@H](CCCCN)NC(=O)[C@H](CO)NC(=O)[C@H](CC(C)C)NC(=O)[C@H](CC(=O)O)NC(=O)[C@H](CO)NC(=O)[C@@H](NC(=O)[C@H](Cc1ccccc1)NC(=O)[C@@H](NC(=O)CNC(=O)[C@H](Cc1c[nH]cn1)NC(=O)C(C)(C)NC(=O)[C@@H](N)Cc1c[nH]cn1)[C@@H](C)O)[C@@H](C)O)C(=O)N[C@@H](CCC(=O)O)C(=O)N[C@@H](CCC(=O)O)C(=O)N[C@@H](CCC(N)=O)C(=O)N[C@@H](CCCNC(=N)N)C(=O)N[C@@H](CCC(N)=O)C(=O)N[C@@H](CCCCN)C(=O)N[C@@H](CCC(=O)O)C(=O)N[C@@H](Cc1ccccc1)C(=O)N[C@H](C(=O)N[C@@H](CCC(=O)O)C(=O)N[C@@H](Cc1c[nH]c2ccccc12)C(=O)N[C@@H](CC(C)C)C(=O)N[C@@H](CCCCN)C(=O)N[C@@H](C)C(=O)N[C@H](C)C(=O)NCC(=O)N1CCC[C@H]1C(=O)N1CCC[C@H]1C(=O)N[C@@H](CO)C(=O)NC(C)(C)C(=O)N[C@@H](CCCCN)C(=O)N1CCC[C@H]1C(=O)N1CCC[C@H]1C(=O)N1CCC[C@H]1C(=O)N[C@@H](CCCCN)C(N)=O)[C@@H](C)CC)C(=O)O)C(=O)O [SEQ ID NO: 9, H-Aib-H-G-T-F-T-S-D-L-S-K-L-K[gGlu-gGlu-Palm]-E-E-Q-R-Q-K-E-F-I-E-W-L-K-A-dAla-G-P-P-S-Aib-K-P-P-P-K-NH2] (H-H[Aib]HGTFTSDLSKLK([γGlu-γGlu-Palmitoyl])EEQRQKEFIEWLKA[dA]GPPS[Aib]KPPPK-NH2)
[1]
  mean blood glucose concentration 24 hours post-dose relative to baseline: at or close to baseline
[2]
  Lag time before increase: >45 h
[3]
  Chemical stability [relative purity loss 28 days 40° C.] (%) at pH 4.5: 6.9%
